One block for each compound: values may come before it.
What was measured:
[1] = molecular target: T1, ALK5 (kinase domain of the TGF-β type I receptor) (Homo sapiens, UniProt P36897); test: ^14C-FSBA affinity labeling detected by autoradiography; assay type: binding; settings: ˜20 μM ^14C-FSBA, 1 hour
T1 construct: recombinantly expressed and purified kinase domain of the transforming growth factor (TGF)-β type I receptor; made in house; host or cells: baculovirus expression system
T1 sequence (P36897 205-495 limits assumed): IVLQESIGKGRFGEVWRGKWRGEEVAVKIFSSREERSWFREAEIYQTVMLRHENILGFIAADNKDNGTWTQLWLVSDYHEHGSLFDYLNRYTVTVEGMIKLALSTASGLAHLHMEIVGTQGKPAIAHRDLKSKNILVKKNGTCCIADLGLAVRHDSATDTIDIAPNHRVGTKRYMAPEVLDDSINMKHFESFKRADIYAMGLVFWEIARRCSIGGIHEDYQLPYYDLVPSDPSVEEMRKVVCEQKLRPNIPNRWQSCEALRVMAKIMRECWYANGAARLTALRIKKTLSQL

ALK5 [2] = molecular target: T2, ALK5 (Homo sapiens, UniProt P36897); test: FSBA covalent modification and protection by competitors, followed by LC/MS; assay type: binding; settings: for Mass Peak (relative percentage), FSBA-modified ALK5 peak: peak 35,405 Da; for Mass Peak (relative percentage), unmodified ALK5 peak: peak 34,972 Da
T2 construct: recombinantly expressed and purified kinase domain of the transforming growth factor (TGF)-β type I receptor; made in house; host or cells: baculovirus expression system
T2 sequence (P36897 205-495 limits assumed): T1 sequence (P36897 205-495 limits assumed)

ALK4 = molecular target: T3, ALK4 (Homo sapiens, UniProt P36896); test: as above; assay type: binding; settings: for Mass Peak (relative percentage), unmodified ALK4 peak: peak 35,025 Da; for Mass Peak (relative percentage), FSBA-modified ALK4 peak: peak 35,459 Da
T3 sequence (P36896 24-505): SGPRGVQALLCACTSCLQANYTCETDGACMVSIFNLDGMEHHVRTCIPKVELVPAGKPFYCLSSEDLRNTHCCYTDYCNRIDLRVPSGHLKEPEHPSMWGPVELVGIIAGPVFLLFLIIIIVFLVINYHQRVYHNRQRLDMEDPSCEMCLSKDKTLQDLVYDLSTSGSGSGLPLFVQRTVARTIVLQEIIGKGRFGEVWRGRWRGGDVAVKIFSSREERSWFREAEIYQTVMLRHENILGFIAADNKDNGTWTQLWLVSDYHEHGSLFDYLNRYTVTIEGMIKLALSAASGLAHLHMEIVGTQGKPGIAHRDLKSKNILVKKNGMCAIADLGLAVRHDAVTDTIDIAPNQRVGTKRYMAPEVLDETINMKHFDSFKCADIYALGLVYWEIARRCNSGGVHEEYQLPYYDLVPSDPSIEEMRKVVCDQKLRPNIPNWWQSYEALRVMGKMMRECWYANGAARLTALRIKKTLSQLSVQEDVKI

CDK2 = CDK2 (Homo sapiens, UniProt P24941); test: as above; assay type: binding; settings: for Mass Peak (relative percentage), unmodified CDK2 peak: peak 33,971 Da; for Mass Peak (relative percentage), FSBA-modified CDK2 peak: peak 34,404 Da
ALK5 [3] = molecular target: T2, ALK5; test: Biotin-FSBA binding and competition detected by Western blot (avidin-HRP); settings: biotin-FSBA 20 μM
[4] = tested on: proteins in HeLa cell lysate; test: Profiling kinases from complex proteome with biotin-FSBA, Western blot; assay type: binding

- Effect of ATP on ^14C-FSBA labeling of ALK5 by autoradiography ([1]; 1 mM ATP): most of the labeling was blocked
- Mass Peak (relative percentage), FSBA-modified ALK5 peak (ALK5 [2]; FSBA 10 μM plus ATP 50 μM): 35,405 Da (100%)
- Mass Peak (relative percentage), unmodified ALK5 peak (ALK5 [2]; FSBA 10 μM plus ATP 100 μM): 34,972 Da (30%)
- Mass Peak (relative percentage), FSBA-modified ALK5 peak (ALK5 [2]; FSBA 10 μM plus ATP 100 μM): 35,405 Da (70%),
- Mass Peak (relative percentage), unmodified ALK5 peak (ALK5 [2]; FSBA 10 μM plus ATP 500 μM): 34,972 Da (100%)
- ATP concentration at which most of the covalent modification of ALK5 by FSBA was inhibited (ALK5 [2]; FSBA 10 μM, LC/MS): 0.5 mM
- Mass Peak (relative percentage), unmodified ALK4 peak (ALK4; FSBA 10 μM plus ATP 50 μM): 35,025 Da (5%)
- Mass Peak (relative percentage), FSBA-modified ALK4 peak (ALK4; FSBA 10 μM plus ATP 50 μM): 35,459 Da (95%),
- Mass Peak (relative percentage), unmodified ALK4 peak (ALK4; FSBA 10 μM plus ATP 100 μM): 35,025 Da (30%)
- Mass Peak (relative percentage), FSBA-modified ALK4 peak (ALK4; FSBA 10 μM plus ATP 100 μM): 35,459 Da (70%),
- Mass Peak (relative percentage), unmodified ALK4 peak (ALK4; FSBA 10 μM plus ATP 500 μM): 35,025 Da (100%)
- ATP concentration at which most of the covalent modification of ALK4 by FSBA was inhibited (ALK4; FSBA 10 μM, LC/MS): 0.5 mM
- Mass Peak (relative percentage), unmodified CDK2 peak (CDK2; FSBA 10 μM plus ATP 1 mM): 33,971 Da (20%)
- Mass Peak (relative percentage), FSBA-modified CDK2 peak (CDK2; FSBA 10 μM plus ATP 1 mM): 34,404 Da (80%),
- Mass Peak (relative percentage), unmodified CDK2 peak (CDK2; FSBA 10 μM plus ATP 5 mM): 33,971 Da (90%)
- Mass Peak (relative percentage), FSBA-modified CDK2 peak (CDK2; FSBA 10 μM plus ATP 5 mM): 34,404 Da (10%),
- Mass Peak (relative percentage), unmodified CDK2 peak (CDK2; FSBA 10 μM plus ATP 10 mM): 33,971 Da (100%)
- ATP concentration necessary to block FSBA binding to CDK2 (CDK2; FSBA 10 μM, LC/MS): 5 mM
- ATP concentration at which biotin-FSBA/ALK5 bands were no longer visible (ALK5 [3]): ≥ 1.0 mM
SMILES: Nc1ncnc2c1ncn2[C@@H]1O[C@H](COP(=O)(O)OP(=O)(O)OP(=O)(O)O)[C@@H](O)[C@H]1O [ATP]
- Effect of ATP on ^14C-FSBA labeling of ALK5 by autoradiography ([1]; 10 mM ATP): autoradiograph did not detect ^14C-FSBA binding

SMILES: C[C@@H](N)[C@H]1CC[C@H](C(=O)Nc2ccncc2)CC1 [Y-27632]
- Effect on FSBA binding to ALK5 (ALK5 [2]; 5 μg ALK5, FSBA 40 μM, about 2 hours, LC/MS): had no effect on FSBA binding to ALK5
- Effect on FSBA labeling of ALK5 (ALK5 [2]; 10 μg ALK5, 10 μM FSBA, 3 hours at room temperature, LC/MS): did not inhibit FSBA labeling of ALK5
- Effect on FSBA labeling of ROCK1 (human ROCK1 (hROCK1)): abrogated FSBA labeling of ROCK1
- Inhibition of FSBA labeling of hROCK1 (human ROCK1 (hROCK1)): inhibits hROCK1 at a 1:1 ratio
- Mode of action on hROCK1 (human ROCK1 (hROCK1)): competitive inhibitor of hROCK1

SMILES: CN[C@@H]1C[C@H]2O[C@@](C)([C@@H]1OC)n1c3ccccc3c3c4c(c5c6ccccc6n2c5c31)C(=O)NC4 [staurosporine]
- Effect of staurosporine on FSBA binding to ALK5 (ALK5 [2]): essentially blocked
- Effect of staurosporine on FSBA binding to ALK4 (ALK4): essentially blocked
- Effect on biotin-FSBA band intensity in HeLa cell lysate ([4]; 80 μg lysate, 500 μM staurosporin 2 hours, then biotin-FSBA 20 μM 4 hours, Western blot (Example 12)): reduced intensity in selective bands
- Effect on biotin-FSBA band intensity in HeLa cell lysate ([4]; staurosporin 500 μM 2 hours, then biotin-FSBA 4 hours, Western blot (Example 11)): dramatic decrease in band intensity for selected bands
